{"source": "patent US20110076318A1", "about": "“RETINOID-CONTAINING SUSTAINED RELEASE INTRAOCULAR IMPLANTS AND RELATED MATTERS” (Allergan, Inc., priority 2004, published 2011)", "key": {"photoreceptors": {"tested_on": "photoreceptors", "test": "Rhodopsin mutant transgenic rat models of retinal degeneration", "format": "in vivo, Transgenic S334ter rats", "conditions": "i.p., S334ter line 3 and line 4", "procedure": "The objective of this study was to determine the efficacy of various retinoids in preventing retinal damage or improving retinal survival in rhodopsin mutant transgenic rat models of retinal degeneration. The overall goal of the research was to investigate potential photoreceptor survival in mutant rhodopsin transgenic rats using RAR α, RAR β γ, and RXR retinoid agonists.\nThe experimental design was straightforward. A compound was injected daily to line 3 and every two days for line 4 animals (i.p.) for a given period and animals were sacrificed at the end by CO2 overdose followed immediately by vascular perfusion of mixed aldehydes. Two litters of rats were used:\n1. Transgenic S334ter-3 rats. Line 3 bears a rhodopsin mutation S334ter. […] Injection of a compound will be given daily from PD 6 (post-delivery day 6) to PD 20.\n2. Transgenic S334ter-4 rats. Line 4 bears a rhodopsin mutation S334ter. Animals of this line experience a 80% loss of photoreceptors by 60 days after birth. The ONL is reduced to one row of nuclei. Injection of a compound will be given every other day from PD 25 to PD 60.\nFor the line 3 animals, treatment started at PD 6 and the endpoint was PD 20. For the line 4, injection began at PD 25 and ended at PD60 when eyes were harvested. Eyes were embedded in an Epon/Araldite mixture for sectioning at 1 μm thickness along the vertical meridian. Protection of photoreceptors was be evaluated by counting the rows of nuclei in the outer nuclear layer.\nThe outcome was a measure of retinal outer layer thickness, and cytology over an 8 week period. Compounds included the retinoid agonists tazarotene (RAR β γ), AGN 195183 (RAR α) and AGN 194204 (RXR). […] This is a fairly harsh model and as such the modest improvement by tazarotene is quite significant."}, "[1]": {"tested_on": "PVR induced by human RPE cells", "test": "PVR model with retinoid implants, Fastenberg scale", "format": "in vivo", "conditions": "at 28 days; 10% loaded PLA/PLGA implants, intravitreal", "text": "PLA and PLGA implants 1.5 mm in diameter and 3 mm in length were fabricated by extrusion of the polymer drug blend. Tazarotenic acid (the free acid of Tazarotene) Tazarotene and 13-cis-retinoic acid were loaded into the implants at 10% concentrations. Briefly, pigmented rabbits were vitrectomized followed by intravitreal injection of 500,000 human RPE cells. After injection of the RPE cells the retinoid implants were placed into the vitreous and anchored to the sclera with the suture used to close the sclerotomy.\nThe eyes were examined weekly for 4 weeks. Severity of PVR was graded based on the Fastenberg scale. At 4 weeks gross pathology and limited histopathology were conducted."}, "[2]": {"tested_on": "traction retinal detachment (PVR)", "conditions": "cited from earlier work"}, "PVR": {"tested_on": "PVR", "conditions": "orally administered, retrospective study; cited from earlier work"}, "RPE proliferation": {"tested_on": "RPE proliferation", "conditions": "biphasic, read-out: IC50, prevention of RPE proliferation in-vitro (biphasic), cited from earlier work"}, "[3]": {"conditions": "cited from earlier work"}, "[4]": {"test": "Ocular disposition of tazarotene and tazarotenic acid after intravitreal and subconjunctival dosing", "format": "in vivo, albino rabbits", "procedure": "General disposition of intraocular and subconjunctivally administered tazarotene and tazarotenic acid was assessed. Briefly, albino rabbits were dosed via intraocular injection with 1.25 μg of tazarotene or tazarotenic acid. Injection was made mid-vitreous. After dosing the vitreous, retina and aqueous humor concentrations of tazarotene and tazarotenic acid were determined at 0.5, 1, 2, 4, 8, 12 and 24 hours post dosing. […] Additionally, the tazarotenic acid concentrations asymptotically approach approximately 10 ng/mL.\nTazarotene was also dosed in the subconjunctival space. Three dosage forms were evaluated: A tazarotene aqueous suspension (1 mg), a tazarotene subconjunctival olive oil solution (1 mg), and an tazarotene poly (lactide-co-glycolide) microsphere suspension. After dosing, the vitreous, retina and aqueous humor concentrations of tazarotene and tazarotenic acid were determined at 2, 8, 24, 48, 96, 168 and 336 hours post dosing. It was observed that subconjunctival administration achieved significant levels of tazarotene and tazarotenic acid in the ocular tissues.\nBriefly, albino rabbits were dosed via intraocular injection with 1.25 μg of tazarotene or tazarotenic acid. Injection was made mid-vitreous. After dosing the vitreous, retina and aqueous humor concentrations of tazarotene and tazarotenic acid were determined at 0.5, 1, 2, 4, 8, 12 and 24 hours post dosing. […]"}, "[5]": {"test": "Plasma concentrations after topical and oral dosing of tazarotene", "format": "in vivo, patients", "conditions": "for Cmax: human; for Cmax / TAZAROTENIC ACID Ctrough: plasma", "procedure": "[…] For the most part tazarotene is not observed in the plasma after topical or oral administration. Facile hydrolysis by pre-systemic metabolism rapidly generates the free acid. […] It is important to note that these are plasma concentrations and the eye plasma distribution ratio is 0.02. Over 90% of all patients in the phase 3 clinical trials had concentrations of the parent compound, tazarotene, <1 ng/mL with the highest being 6 ng/mL.\n(§1) Oral delivery of 1.1 mg and 6 mg multiple doses led to 28.9 ng/mL and 227 ng/ml peak levels with a 2.56 ng/mL trough. This corresponds to a maximum possible 4 ng/mL ocular level for the highest dose. FIG. 11 depicts the tissue distribution of tazarotenic acid. The eyes show a 2% tissue/plasma ration in the rat. It should be noted that tazarotenic acid is 99% protein bound and distribution is limited to unbound drug."}, "[6]": {"test": "Tissue-to-plasma distribution after daily topical 14C-tazarotene", "format": "in vivo", "conditions": "rat", "procedure": "FIG. 11 is a graph illustrating tissue-to-plasma concentration ratios of after twenty-one days of daily topical application of 14C-tazarotene to the skin of rats.\nas §1"}, "[7]": {"test": "Protein binding of tazarotenic acid", "format": "in vitro ADME"}, "[8]": {"conditions": "Five to ten μg in a silicone oil tamponade"}}, "note": "Like-named read-outs stand apart in the source and are kept apart here."}
{"molecule": "CC(/C=C/[C@@H]1C[C@]1(C)c1ccc2c(c1)C(C)(C)CCC2(C)C)=C\\C(=O)O", "note": "[AGN 194204]", "values": [{"measurement": "protection of photoreceptors (outer nuclear layer)", "setting": "photoreceptors", "result": "Tazarotene was the only compound to show efficacy"}]}
{"molecule": "CC1(C)CCC(C)(C)c2c1cc(C(=O)Nc1cc(F)c(C(=O)O)c(F)c1)c(O)c2Cl", "note": "[AGN 195183]", "values": [{"measurement": "protection of photoreceptors (outer nuclear layer)", "setting": "photoreceptors", "result": "Tazarotene was the only compound to show efficacy"}]}
{"molecule": "CC1=C(/C=C/C(C)=C/C=C/C(C)=C\\C(=O)O)C(C)(C)CCC1", "note": "[Isotretinoin, 13-cis-retinoic acid]", "values": [{"measurement": "eyes progressed to traction retinal detachment", "setting": "[1]", "result": 22, "unit": "%"}, {"measurement": "traction retinal detachment in animal model of PVR", "setting": "[2]; [8]", "result": "effectively prevent traction retinal detachment"}, {"measurement": "effect on PVR and retinal attachment", "setting": "PVR", "result": "effective at decreasing PVR and increasing the rate of retinal attachment"}]}
{"molecule": "CC1=C(/C=C/C(C)=C/C=C/C(C)=C/C(=O)O)C(C)(C)CCC1", "note": "[RA, All trans-retinoic acid]", "values": [{"measurement": "IC50", "setting": "RPE proliferation; first value", "result": 0.01, "unit": "nM"}, {"measurement": "IC50", "setting": "RPE proliferation; second value", "result": 17, "unit": "nM"}, {"measurement": "traction retinal detachment in animal model of PVR", "setting": "[2]; [8]", "result": "effectively prevent traction retinal detachment"}, {"measurement": "traction retinal detachment in animal model of PVR", "setting": "[2]; Ten and 15 μg in 1-% hyaluronic acid and BSS", "result": "reduced traction retinal detachment"}, {"measurement": "ocular toxicity by histopathology and ophthalmoscopic examination", "setting": "[3]; five to ten μg in silicone oil", "result": "no ocular toxicity"}, {"measurement": "concentration well tolerated with no ERG changes", "setting": "[3]; in vivo", "result": "up to 15 μg/mL"}]}
{"molecule": "CC1(C)CCSc2ccc(C#Cc3ccc(C(=O)O)cn3)cc21", "note": "[Tazarotenic Acid, 4,4-dimethyl-6-[2′-(5″-carboxy-2″-pyridyl)-ethynyl]-thiochroman]", "values": [{"measurement": "maximal vitreous concentration of tazarotenic acid (asymptote)", "setting": "[4]; after intraocular injection of 1.25 μg tazarotene", "result": "approximately 10 ng/mL"}, {"measurement": "half-life", "setting": "[4]; albino, rabbit, vitreous, other: intraocular injection, mid-vitreous, 1.25 ug, midvitreous dosing of 1.25 μg tazarotenic acid, read-out: vitreous elimination half-life (converted)", "result": 254, "unit": "min"}, {"measurement": "maximum possible ocular level", "setting": "[5]; highest oral dose (6 mg)", "result": "≤ 4", "unit": "ng/mL"}, {"measurement": "Cmax", "setting": "[5]; po, 1.1 mg/Day, Oral 1.1 mg/Day, read-out: TAZAROTENIC ACID Cmax", "result": 28.9, "unit": "ng/mL"}, {"measurement": "Cmax", "setting": "[5]; po, 3 mg/Day, Oral 3.0 mg/Day, read-out: TAZAROTENIC ACID Cmax", "result": 81.6, "unit": "ng/mL"}, {"measurement": "Cmax", "setting": "[5]; po, 6 mg/Day, Oral 6.0 mg/Day, read-out: TAZAROTENIC ACID Cmax", "result": 227, "unit": "ng/mL"}, {"measurement": "Cmax", "setting": "[5]; topical or ocular, 0.1 % gel, Topical Gel 0.1% 2% BSA, read-out: TAZAROTENIC ACID Cmax", "result": 0.241, "unit": "ng/mL"}, {"measurement": "Cmax", "setting": "[5]; topical or ocular, 0.1 % gel, Topical Gel 0.1% 7% BSA, read-out: TAZAROTENIC ACID Cmax", "result": 0.83, "unit": "ng/mL"}, {"measurement": "Cmax", "setting": "[5]; topical or ocular, 0.1 % gel, Topical Gel 0.1% 15% BSA, read-out: TAZAROTENIC ACID Cmax", "result": 4.8, "unit": "ng/mL"}, {"measurement": "Cmax", "setting": "[5]; topical or ocular, 0.1 % gel, Topical Gel 0.1% 20% BSA, read-out: TAZAROTENIC ACID Cmax", "result": 12, "unit": "ng/mL"}, {"measurement": "Cmax", "setting": "[5]; topical or ocular, 0.1 % gel, Topical Gel 0.1% Phase 3, in 90%, read-out: TAZAROTENIC ACID Cmax", "result": "< 1", "unit": "ng/mL"}, {"measurement": "Cmax", "setting": "[5]; topical or ocular, range over topical studies, read-out: Tazarotenic acid plasma concentrations (Cmax) from topical administration", "result": "0.25 to 12", "unit": "ng/mL"}, {"measurement": "TAZAROTENIC ACID Ctrough", "setting": "[5]; Oral 6.0 mg/Day, listed as TAZAROTENIC ACID", "result": "Ctrough 2.56 ng/mL"}, {"measurement": "TAZAROTENIC ACID Ctrough", "setting": "[5]; Oral 6.0 mg/Day, listed as tazarotenic acid", "result": 2.56, "unit": "ng/mL"}, {"measurement": "eyes tissue/plasma ratio", "setting": "[6]; FIG. 11", "result": 2, "unit": "%"}, {"measurement": "Kp at 21 days", "setting": "[6]; eye, topical, read-out: eye plasma distribution ratio", "result": 0.02}, {"measurement": "protein bound", "setting": "[7]", "result": 99, "unit": "%"}, {"measurement": "eyes progressed to traction retinal detachment", "setting": "[1]", "result": 12, "unit": "%"}]}
